From PMC8000760, “Potential Effect of Pseudevernia furfuracea (L.) Zopf Extract and Metabolite Physodic Acid on Tumour Microenvironment Modulation in MCF-10A Cells” (Biomolecules, 2021) come the findings set out here.

The structures appear in SMILES notation.

Series [1] has as its system N-cadherin, fibronectin, α-SMA, Slug in BJ-5ta. Kind of series: Western blot of mesenchymal markers in TGF-β-stimulated fibroblasts. The series is classed as cell-based. Particulars: TGF-β-stimulated BJ-5ta, 48 and 72 h, time- and dose-dependent manner. On the procedure:
(§1) The MCF-10A and BJ-5ta cells were seeded and cultivated for 24 h in a complete medium. One day after seeding, 30 ng/mL of TGF-β was added and cultivated for 7 days (d). TGF-β was added to induce epithelial–mesenchymal transition in tested cell lines. Lichen extract P. furfuracea (L.) Zopf and its metabolite physodic acid were added at time 0 h and then incubated for 24, 48 and 72 h for various analyses, as described in Figure 1.
(§2) Proteins isolated from MCF-10A and BJ-5ta cell lysates were determined by the Pierce® BCA Protein Assay Kit (Thermo Scientific, Rockford, IL, United States), using bovine serum albumin (BSA) as the standard, and measured by an automated Cytation™ 3 Cell Imaging Multi-Mode Reader (Biotek) at a wavelength of 570 nm. Proteins were separated on SDS-PAA gel (12%) at 100 V for 2 h and then transferred to a polyvinylidene difluoride (PVDF) membrane using the iBlot dry blotting system (Thermo Scientific, Rockford, IL, United States). […] After incubation, the membrane was again washed in TBS-Tween (3 × 5 min), and the expression of the protein was detected using a chemiluminescent ECL substrate (Thermo Fisher Scientific) and MF-ChemiBIS 2.0 Imaging System (DNR BIO-Imaging Systems, Jerusalem, Israel). The detected band was then analysed densitometrically using the Image Studio Lite software (LI-COR Biosciences, Lincoln, NE, USA). […]
On the technique in general: A western blot detects proteins with antibodies after separation by electrophoresis.

Series [2] relates to E-cadherin in TGF-β-stimulated MCF-10A cells. Briefly: E-cadherin expression (Western blot, flow cytometry, immunofluorescence). It is filed as cell-based, human. Particulars: TGF-β-stimulated groups. On the procedure: as §1
The MCF-10A cells (1 × 10^4/well) were seeded in Petri dishes and stimulated with […] TGF-β for 7 days. […] After detaching, using Trypsin/EDTA, cells were harvested and pelleted by centrifugation at 1200 rpm for 5 min. […] All samples were analysed using a FACS Calibur flow cytometer (Becton Dickinson, San Jose, CA, USA). […]
Proteins isolated from MCF-10A and BJ-5ta cell lysates were determined by the Pierce® BCA Protein Assay Kit (Thermo Scientific, Rockford, IL, United States), using bovine serum albumin (BSA) as the standard, and measured by an automated Cytation™ 3 Cell Imaging Multi-Mode Reader (Biotek) at a wavelength of 570 nm. […] After incubation, the membrane was again washed in TBS-Tween (3 × 5 min), and the expression of the protein was detected using a chemiluminescent ECL substrate (Thermo Fisher Scientific) and MF-ChemiBIS 2.0 Imaging System (DNR BIO-Imaging Systems, Jerusalem, Israel). […]

The subject of series [3] is HUVECs. Kind of series: MTS cell viability assay. The series is classed as cell-based, human. Particulars: 48 h. On the procedure: (§3) Briefly, MCF-10A and BJ-5ta were seeded in 96-well culture plates, and after 24 h incubation, treated with various ranges of concentrations of tested compounds (10–100 μg/mL) for 72 h. At the same time, HUVECs were seeded in a gelatine-coated 96-well plate and treated with the same aliquots of indicated compounds in the presence or absence of VEGF (Vascular endothelial growth factor) (25 ng/mL) for 48 h. Cell viability was evaluated by measuring the absorbance at 490 nm using the automated CytationTM 3 Cell Imaging Multi-Mode Reader (Biotek, Winooski, VT, USA). Three independent experiments were performed at different intervals.
A general note: Tetrazolium assays rely on reduction of a dye to a coloured formazan, in cell work by metabolically active cells.

The test system of series [4] is MCF-10A. Briefly: MTS cell viability assay. It is filed as cell-based, human. Particulars: 72 h. On the procedure: as §3
For series [5], the system named is HUVECs. Briefly: BrdU cell proliferation assay. It is filed as cell-based, human. Particulars: 48 h. On the procedure:
(§4) The MCF-10A (5 × 10^3/well), BJ-5ta (5 × 10^3/well) and HUVEC cells (4 × 10^3/well) were plated in a 96-well plate in 80 μL suitable medium. HUVECs were seeded onto a gelatine-coated plate. After 24 h, cells were treated with the range of concentration 10–100 μg/mL for 72 h (MCF-10A, BJ-5ta), or in the presence or absence of 25 ng/mL of VEGF for 48 h (HUVECs). After 48 h (MCF-10A, BJ-5ta) or 24 h (HUVECs), BrdU labelling solution was added into cells and incubated for another 24 h at 37 °C, followed by fixation and incubation with anti-BrdU peroxidase conjugate solution for an additional 1.5 h at room temperature (RT). Then, cells were washed with washing buffer PBS and incubated with substrate solution TMB for 5 to 30 min according to colour intensity. Finally, we added stop solution (1 M H2SO4) and incorporated BrdU was detected with an automated CytationTM 3 Cell Imaging Multi-Mode Reader at 450 nm (reference wavelength: 690 nm). Three independent experiments were performed at different intervals.

The test system of series [6] is MCF-10A. Briefly: BrdU cell proliferation assay. It is filed as cell-based, human. Particulars: 72 h. As to the method:
as §4

The test system of the next series is Smad2/3 in BJ-5ta. Briefly: Western blot of total Smad2/3 in TGF-β-stimulated fibroblasts. Particulars: TGF-β-stimulated BJ-5ta. The series is classed as cell-based. On the procedure: as §1, §2
Series [7] has as its system fibronectin in TGF-β-stimulated MCF-10A cells. Kind of series: Fibronectin expression, Western blot. The series is classed as cell-based, human. Particulars: IC10 and IC50, dose-dependent manner. As to the method: as §1, §2
Series [8] relates to MCF-10A, BJ-5ta and HUVEC cells. Kind of series: MTS cell viability assay, range over the three cell lines. It is filed as cell-based. Particulars: cell viability and cell proliferation tests. As to the method: as §3

The IC10 is the concentration at which the effect reaches the 10% level. As usually defined, the IC50 is the concentration needed to halve the response being measured. In the case of `CCCCCC(=O)Cc1cc(O)cc2c1C(=O)Oc1cc(O)c(C(=O)O)c(CCCCC)c1O2` [Phy, physodic acid], the mesenchymal markers expression result in series [1] is recorded as “significantly decrease”. The “restoration of E-cadherin” value in [2] is “did not observe a significant restoration”. Also, the VEGF-induced cell growth result in the series on HUVECs [3] (HUVECs with VEGF 25 ng/mL) was “significantly inhibited”. Further, the “cell growth of non-stimulated HUVECs” value in the series on HUVECs [3] (HUVECs without VEGF) is reported as “no significant differences”. Also, the IC10 is 60.62 ± 3.30 µM in the series on HUVECs [3] (HUVECs), 59.25 ± 1.36 µM with MCF-10A [4], 89.53 ± 3.21 µM in the series with HUVECs [5] and 63.63 ± 3.40 µM in the series with MCF-10A [6]. Further, the half-inhibitory concentration (IC50) with HUVECs [3] (Homo sapiens, HUVEC, HUVECs) came out at 92.8 ± 3.62 µM; with MCF-10A [4] (Homo sapiens), 79.9 ± 0.93 µM; in the series with HUVECs [5] (Homo sapiens, HUVEC) it was 124 ± 5.33 µM; with MCF-10A [6] (Homo sapiens) it was 155 ± 7.4 µM. Moreover, the “total Smad2/3 levels” value with Smad2/3 in BJ-5ta is recorded as “altered minimally”. In addition, the “levels of fibronectin, Western blot” value in series [7] is on record as “downregulated”. Moreover, in series [8], the “degree of cytotoxicity on all tested cells” value was “did not show a high degree of cytotoxicity”.
